# Laboratory results from article PMC9103699, “Myoglobin Interaction with Lactate Rapidly Releases Oxygen: Studies on Binding Thermodynamics, Spectroscopy, and Oxygen Kinetics” (International Journal of Molecular Sciences, 2022).
# “Also recorded” adds a separate entry of the source.
# Columns and labels:
# [1] = biological target: T1, chicken egg white lysozyme (Gallus gallus, UniProt P00698); assay: ITC binding of LAC to negative control protein lysozyme; settings: all tested pH conditions (pH 7.0, 6.4, 6.0)
# T1 construct: Horse heart muscle myoglobin (Mb), chicken egg white lysozyme, sodium lactate (LAC), and sodium dithionite were purchased from Sigma Aldrich; purchased Sigma Aldrich, St. Louis, MO, USA; host or cells: chicken egg white
# Protocol: Horse heart muscle myoglobin (Mb), chicken egg white lysozyme, sodium lactate (LAC), and sodium dithionite were purchased from Sigma Aldrich, St. Louis, MO, USA. All other chemicals used in the experiments are of analytical grade and were also procured from Sigma Aldrich, St. Louis, MO, USA.
# Protein-ligand binding experiments were performed using isothermal titration calorimetry (ITC) (Microcal PEAQ-ITC, Malvern, Chester County, PA, USA). Before starting the experiment, both the ligand solution and the protein solution were purged with either O2 or N2 for 10 min. Both the protein and LAC solutions were thermally equilibrated to 25 °C prior to the start of the titration. LAC was loaded in the […] at an initial concentration of 50 µM and titrated against 500 µM of either oxy- or deoxy-Mb solution, maintaining a 1:10 ratio between ligand and protein. To obtain the working c-value between 10 ≤ c ≤ 500 [51], different protein to ligand molar ratios (1:2, 1:5, 1:10, and 1:20) were tested, and based on the c-value, the molar ratio of 1:10 was selected for all ITC binding studies. A total of 19 injections (2 µL each) from the syringe were used to generate the ITC curves within each experiment. During the experimental run, the samples were mixed thoroughly at a constant stirring rate of 750 rpm. Between each injection, a 150 s gap was maintained to achieve a stable baseline. […]
# [2] = biological target: T2, equine oxy-Mb (Equus caballus, UniProt P68082); assay: ITC binding of lactate to oxy-Mb; settings: for Kd: n = 5; for c value: c = nKa[M]t; for ΔS°: from ΔG = ΔH − TΔS
# T2 construct: Horse heart muscle myoglobin (Mb), chicken egg white lysozyme, sodium lactate (LAC), and sodium dithionite were purchased from Sigma Aldrich; purchased Sigma Aldrich, St. Louis, MO, USA; host or cells: horse heart muscle
# Protocol: (§1) Preparations enriched in oxygenated and deoxygenated forms of Mb were prepared as described by our earlier publication related to Mb interaction with fatty acids and acylcarnitines. Briefly, 500 µM of Mb was dissolved in 50 mM sodium phosphate buffer of desired test pH. To promote conversion of ferric (Fe^3+) to ferrous (Fe^2+) iron, 3 mM of sodium dithionite was added to the protein solution with gentle mixing. Thereafter, the solution was subjected to a desalting column to remove the reducing agent and to remove the interference, particularly in O2 release kinetics and UV-Vis spectroscopy absorbance peaks. […] Thereafter, purging the protein solution enriched in oxy- and deoxy-Mb with either O2 or N2 gas, respectively, was performed continuously for 10 min. Formation of oxy- and deoxy-Mb were confirmed based on their characteristic peaks using UV-visible spectroscopy. All the experiments were performed in three different pH conditions (7.0, 6.4, and 6.0), mimicking intracellular physiological and acidic pH states that would be typically observed in skeletal muscle cells in “rested” and “active” (hyperlactatemia) conditions.
# (§2) Protein-ligand binding experiments were performed using isothermal titration calorimetry (ITC) (Microcal PEAQ-ITC, Malvern, Chester County, PA, USA). Before starting the experiment, both the ligand solution and the protein solution were purged with either O2 or N2 for 10 min. Both the protein and LAC solutions were thermally equilibrated to 25 °C prior to the start of the titration. LAC was loaded in the […] at an initial concentration of 50 µM and titrated against 500 µM of either oxy- or deoxy-Mb solution, maintaining a 1:10 ratio between ligand and protein. To obtain the working c-value between 10 ≤ c ≤ 500 [51], different protein to ligand molar ratios (1:2, 1:5, 1:10, and 1:20) were tested, and based on the c-value, the molar ratio of 1:10 was selected for all ITC binding studies. A total of 19 injections (2 µL each) from the syringe were used to generate the ITC curves within each experiment. During the experimental run, the samples were mixed thoroughly at a constant stirring rate of 750 rpm. Between each injection, a 150 s gap was maintained to achieve a stable baseline. Data obtained from the ITC experiments were best fit to a one set of binding sites model provided by Microcal PEAQ-ITC software (version 1.40). Heats of dilution and heats caused by potential products formed during the course of the ITC experiments were corrected by performing appropriate blank titrations, consisting of (a) either oxy- or deoxy-Mb in the test buffer solution, (b) test buffer in the LAC, and (c) buffer-buffer solution. Lysozyme was used as a negative control protein in the protein-ligand binding experiments. All the binding experiments were performed 5 times (n = 5) and data obtained from statistical analysis are presented here.
# (§3) The change in entropy (ΔS) was calculated using the equation: ΔG = ΔH − TΔS(1) where ΔG represents the change in Gibbs free energy, ΔH is the change in enthalpy, and T is the absolute temperature.
# (§4) c values were calculated using the equation:c = nKa[M]t(2) where n is the number of binding sites per receptor (macromolecule), [M]t is macromolecule concentration, and Ka is the association constant.
# [3] = biological target: T3, equine deoxy-Mb (Equus caballus, UniProt P68082); assay: ITC binding of lactate to deoxy-Mb; settings: for Kd: n = 5; for c value: c = nKa[M]t; for ΔS°: from ΔG = ΔH − TΔS
# T3 construct: Horse heart muscle myoglobin (Mb), chicken egg white lysozyme, sodium lactate (LAC), and sodium dithionite were purchased from Sigma Aldrich; purchased Sigma Aldrich, St. Louis, MO, USA; host or cells: horse heart muscle
# Protocol: as §1, §2, §3, §4
# [4] = biological target: T2, equine oxy-Mb; assay: O2 release kinetics from oxy-Mb (Oxytherm+ respirometer); format: biochemical
# Protocol: Figure 4 Effect of lactate binding to oxy-Mb and O2 release kinetics. Oxygen kinetics is studied using Oxytherm+ respirometer. All experiments were performed with 50 mM sodium phosphate buffer (pH 7.0, pH 6.4, and pH 6.0) containing 150 µM equine oxy-Mb and varying concentrations of lactate (0.625 mM to 2.5 mM) and oxy-Mb alone as a control. (a) A representative graph showing addition of lactate eliciting a rapid release of O2 from oxy-Mb at pH 6.4. Arrows in the figure indicate the point of addition of oxy-Mb and LAC into buffer during the run. (b) Rate of release of O2 from Mb against lactate concentrations with buffers (pH 7.0, pH 6.4, and pH 6.0). […] All O2 kinetic experiments were repeated 3 times (n = 3). Statistical analysis was performed using one-way ANOVA and the Tukey–Kramer post hoc test. […] Among all the test groups, only statistically […] groups are shown with horizontal lines and two asterisks.
# The O2 concentrations (release and binding) during the ligand interactions with Mb in the solution were measured using Oxytherm+ liquid-phase oxygen electrode system (Hansatech Instruments, Norfolk, UK). The Oxytherm+ respirometer is an advanced instrument routinely used for respiration studies.
# The measurement of dissolved O2 is calculated at the given temperature and atmospheric pressure according to the following equation [64]: Cs = 14.16 − (0.394 × T) + (0.007714 × T^2) − (0.0000646 × […])(3) where Cs is the saturated O2 concentration in ppm and T is the temperature in °C.
# 1 ppm is equivalent to 1 µg/mL or (1 µg/32 g/mol) = 0.03125 µmol/mL or 31.25 nmol/mL.
# Similarly, deoxy-Mb protein alone (i.e., without LAC) was also tested. All the experiments were carried out at a constant temperature of 25 °C using a Peltier thermostat. The solutions were mixed at 50 rpm using a small magnetic stirring bar placed inside the sample container. Samples were injected into the buffer solution (50 mM sodium phosphate) at varying pH levels (pH 6.0–7.0) using a Hamilton glass syringe (1cc) after achieving equilibrium. Ligand was added to the Mb protein. Appropriate buffer controls voiding either Mb or LAC were used to nullify any artefacts. O2 kinetic experiments were also performed. All the kinetic experiments were performed 3 times (n = 3) and data obtained from statistical analysis are presented here.
# [5] = biological target: deoxy-Mb; set-up: method as in PMID 8663546; settings: pH 6.5, spectrophotometric, tonometry; cited from earlier work
# [6] = biological target: T4, deoxy-Mb (Equus caballus, UniProt P68082); assay: Time-resolved UV-Vis spectroscopy of LAC-incubated deoxy-Mb; set-up: species or system horse; settings: data not shown
# T4 construct: Horse heart muscle myoglobin (Mb), chicken egg white lysozyme, sodium lactate (LAC), and sodium dithionite were purchased from Sigma Aldrich; purchased Sigma Aldrich, St. Louis, MO, USA; host or cells: horse heart muscle
# Protocol: (§5) The change in the spectral characteristics of Mb alone and LAC-bound Mb were recorded using UV-Vis spectroscopy (Polarstar Omega, BMG Labtech, ortenberg, Germany). All the sample preparations and the concentrations used were similar to the ITC experiments. After degassing Mb and LAC samples either with O2 or N2 gas in sealed vials, appropriate volumes of the samples were collected using a Hamilton glass syringe (1cc), mixed in a glass cuvette, and sealed immediately; time-resolved spectra were recorded immediately at 25 °C for a period of 75 min. All spectral data were collected at 5 min time intervals. All the spectral experiments were performed 3 times (n = 3).
# [7] = biological target: oxy-Mb; set-up: method as in PMID 8663546; settings: pH 6.5, spectrophotometric, tonometry; cited from earlier work
# [8] = biological target: T5, oxy-Mb (Equus caballus, UniProt P68082); assay: Time-resolved UV-Vis spectroscopy of LAC-incubated oxy-Mb; set-up: species or system horse; settings: all the test pH conditions
# T5 construct: Horse heart muscle myoglobin (Mb), chicken egg white lysozyme, sodium lactate (LAC), and sodium dithionite were purchased from Sigma Aldrich; purchased Sigma Aldrich, St. Louis, MO, USA; host or cells: horse heart muscle
# Protocol: as §5
# [9] = pH 6.4, 25 °C, listed as lactate
# T2 sequence (P68082 whole entry): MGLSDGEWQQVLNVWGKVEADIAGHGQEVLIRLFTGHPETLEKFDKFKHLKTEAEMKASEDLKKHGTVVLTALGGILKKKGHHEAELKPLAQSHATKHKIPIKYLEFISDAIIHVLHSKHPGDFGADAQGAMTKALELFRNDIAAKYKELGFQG
# T3 sequence (P68082 whole entry): as above
# T1 sequence (P00698 19-147): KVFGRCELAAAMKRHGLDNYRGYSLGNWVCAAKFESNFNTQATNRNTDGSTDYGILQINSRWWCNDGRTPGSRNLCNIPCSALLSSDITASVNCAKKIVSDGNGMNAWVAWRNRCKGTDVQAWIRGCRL
# T5 sequence (P68082 whole entry): as the sequence (P68082 whole entry) above
# T4 sequence (P68082 whole entry): as above
smiles,measurement,setting,value
"CC(O)C(=O)[O-].[Na+] (stereo not drawn) [LAC, sodium lactate]",binding of LAC (ITC),[1],no detectable binding; also recorded: did not bound
same,No. of binding sites,[2]; pH 6.0,1.0 ± 0.06 ^a2
same,ΔH°,[2]; pH 6.0,34 ± 3.5 ^c2 kcal mol^−1
same,Kd,"[2]; pH 6.0, 25 °C",1.9 ± 0.2 µM
same,ΔG,"[2]; pH 6.0, printed as Mb+LAC complex",-7.8 kcal/mol
same,c value,[2]; pH 6.0,267.9 ± 30.4 ^d2
same,ΔS°,[2]; pH 6.0,0.14 ± 0.01 ^c2 cal mol^−1 K^−1
same,No. of binding sites,[2]; pH 6.4,0.8 ± 0.03 ^a1
same,ΔH°,[2]; pH 6.4,151.5 ± 18.5 ^b1 kcal mol^−1
same,Kd,"[2]; pH 6.4, 25 °C",~7 µM
same,Kd,[2]; [9],6.9 ± 1.1 µM
same,ΔG,"[2]; pH 6.4, oxy-Mb+LAC complex",-6.9 kcal/mol
same,c value,[2]; pH 6.4,67.5 ± 15.5 ^b1
same,ΔS°,[2]; pH 6.4,0.5 ± 0.06 ^b1 cal mol^−1 K^−1
same,Ka,[2]; pH 7.0,0.05 µM⁻¹
same,No. of binding sites,[2]; pH 7.0,0.9 ± 0.7 ^b*
same,ΔG,[2]; pH 7.0,-6.2 kcal/mol
same,ΔH°,[2]; pH 7.0,−53.1 ± 0.3 ^a* kcal mol^−1
same,Kd,"[2]; pH 7.0, 25 °C",20.7 ± 2.7 µM
same,c value,[2]; pH 7.0,22.4 ± 1.4 ^a
same,ΔS°,[2]; pH 7.0,−0.15 ± 0.01 ^a* cal mol^−1 K^−1
same,increase of Ka with drop in pH,[2]; pH 7.0 to pH 6.0,~ 3 fold
same,No. of binding sites,[3]; pH 6.0,0.8 ± 0.02 ^a2
same,ΔH°,[3]; pH 6.0,12.6 ± 0.4 ^d3 kcal mol^−1
same,Kd,"[3]; pH 6.0, 25 °C",6.4 ± 0.2 µM
same,c value,[3]; pH 6.0,61.2 ± 0.9 ^b1
same,ΔS°,[3]; pH 6.0,0.1 ± 0.0 ^d3 cal mol^−1 K^−1
same,No. of binding sites,[3]; pH 6.4,0.8 ± 0.03 ^a1
same,ΔH°,[3]; pH 6.4,149.5 ± 13.0 ^b1 kcal mol^−1
same,Kd,"[3]; pH 6.4, 25 °C",~14 µM
same,Kd,[3]; [9],13.7 ± 1.6 µM
same,c value,[3]; pH 6.4,30.4 ± 4.6 ^c1
same,ΔS°,[3]; pH 6.4,0.55 ± 0.03 ^b1 cal mol^−1 K^−1
same,Ka at pH 6.4 relative to pH 6.0,[3]; pH 6.4 vs pH 6.0,~ 2 fold
same,binding of LAC (ITC),[3]; pH 7.0,No detectable binding
same,No. of binding sites,"[3]; pH 7.0, NDB: no detectable binding",NDB
same,O2 release compared to oxy-Mb alone,"[4]; 0.625 mM LAC, pH 6.0",no significance difference
same,maximum rate of O2 release,"[4]; 2.5 mM LAC, pH 6.4 buffer, 25 °C",72 nmol/min/g protein
same,O2 release rate constant,[4]; pH 6.0,0.04 mM LAC/nM O2 release
same,O2 release rate constant,[4]; pH 6.4,0.029 mM LAC/nM O2 release
same,O2 release rate constant,[4]; pH 7.0,0.537 mM LAC/nM O2 release
same,Kd,[5],2500 µM
same,change in UV-Vis spectral data,[6],marginal changes in the heme peak absorbance (435 nm)
same,Kd,[7],26000 µM
same,change in UV-Vis spectral data,[8],no change in spectral data
